Experimental data reported in patent US20220127247A1, “N-(PYRIDIN-2-YL)PYRIDINE-SULFONAMIDE DERIVATIVES AND THEIR USE IN THE TREATMENT OF DISEASE” (NOVARTIS AG, priority 2019, published 2022).

Legend:
delF508-CFTR [1] = biological target: T1, delF508-CFTR (Homo sapiens, UniProt P13569, DEL508-508); test: Measurement of delF508-CFTR-HRP surface expression in CFBE41o- cells; type: cell-based; conditions: for EC50: HRP-tagged delF508-CFTR in CFBE41o- cells, 24 h with compound, luminescence, 10-point curve, top 10 μM; for Emax: efficacy relative to reference compound 3-(6-(1-(2,2-difluorobenzo[d][1,3]dioxol-5-yl)cyclopropane-1-carboxamido)-3-methylpyridin-2-yl)benzoic acid, CFBE41o- cells, 24 h, read-out: DelF508-CFTR-HRP Amax %
T1 construct: expressed in transfected cells
In short: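 CFBE41o- cells stably expressing delF508-CFTR with HRP in the fourth extracellular loop, induced with 500 ng/mL doxycycline for 48 h, then treated with compound (top 10 μM, 10-point 3-fold) for 24 h at 37° C. Surface HRP detected by luminescence with cell-impermeant substrate; EC50 from logistic fit of triplicates, normalized to lowest concentration.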

delF508-CFTR [2] = biological target: T1, delF508-CFTR; test: delF508-CFTR functional activity in primary human bronchial epithelial cells (HBECs), Multi-Transepithelial Clamp Circuit (MTECC-24) assay; type: cell-based; conditions: for EC50: primary human delF508-CFTR bronchial epithelial cells, 24 h with compound, equivalent short circuit current (Ieq), forskolin plus potentiator, mean of at least two replicates, read-out: MTECC24-CFHBEC EC50; for MTECC24-CFHBEC Amax %: test compound added 24 h before assay, with potentiator (S)-3-amino-6-methoxy-N-(3,3,3-trifluoro-2-hydroxy-2-methylpropyl)-5-(trifluoromethyl)picolinamide, relative to 2 μM 3-(6-(1-(2,2-difluorobenzo[d][1,3]dioxol-5-yl)cyclopropane-1-carboxamido)-3-methylpyridin-2-yl)benzoic acid + 0.5 μM N-(2,4-di-tert-butyl-5-hydroxyphenyl)-4-oxo-1,4-dihydroquinoline-3-carboxamide
Description: Measurement of delF508-CFTR Functional Activity in Primary Human Bronchial Epithelial Cells (HBECs) Using Multi-Transepithelial Clamp Circuit (MTECC-24) Assay
This assay measures the functional activity of the CFTR channel (Chloride ion transport) in patient derived primary human bronchial epithelial cells with forskolin activation and in the presence of the CFTR corrector/potentiator combination.
Primary human delF508-CFTR bronchial epithelial cells were and cultured according to previously established methods (Neuberger, T. et, al., Methods in Molecular Biology, 2011, 741, pp 39-54). Briefly, before thawing the HBEC cells, T25 flasks were coated with 2 mL of 3T3 conditioned media (MTI-GlobalStem, Cat #GSM9100) for at least 12 hours in 37° C. CO2 incubator. 1.7×10^5 cells were seeded into one T25 flask with 5 mL of HBE growth media (BEBM with supplements (Lonza, Cat #CC-3170) with 10 nM of retinoic acid (Sigma, Cat #R-2625) and 1% of PSA (Hyclone, Cat #SV30079.01). Media was changed every day till the cells were 100% confluent. Cells were seeded into T75 flasks (pre-coated with 5 mL of 3T3 conditioned media for more than 12 hrs) at 4.95×10^5 cells/T75 flask in 15 mL of HBE growth media. Flasks were fed everyday with fresh HBE growth media until the cells were confluent. 24-well transwell plates (Corning, Cat #3378) were coated with 3T3 conditioned media (70 μL on top of the filter, 350 μL to the bottom of the well) overnight in the 37° C. CO2 incubator. Cells were seeded in the pre-coated 24-well transwell plates at 1.7×10^5 cell/well with 700 μL of growth media at the bottom of the well and 200 μL of growth media at the top of the filter. After 24 hrs, cells were switched into HBE differentiation media ((DMEM/F12 (Gibco, Cat #11330-032) supplement with 2% Ultroser G (Pall, Cat #15950-017), 2% of Fetal Clone II (Hyclone, Cat #SH30066.03), 0.25% Bovine Brain Extract (Lonza, Cat #CC-4098), 1% of PSA, 2.5 μg/mL of Insulin (Sigma, Cat #19278), 20 nM of Hydrocortisone (Sigma, Cat #H0888), 500 nM of Triiodothyronine (Sigma, Cat #T6397), 2.5 μg/mL of Transferrin (Sigma, Cat #T8158), 250 nM of Ethanolamine (Sigma, Cat #E0135), 1.5 μM of Epinephrine (Sigma, Cat #E4250), 250 nM of Phosphoethanolamine (Sigma, Cat #P0503), 10 nM of retinoic acid)) with 200 μL on top of the filter (apical side) and 700 μL at the bottom of the well (basolateral side). Cells were fed every other day with the differentiation media. After 4 days, cells were exposed to air/liquid interface. Then cells were fed every other day for 4 weeks before fully differentiated.
Cells were washed with 3 mM DTT in PBS at 70 ul/well for 30 min at 37° C. 6 days before the assay. 3 days before the assay, cells were washed again with PBS at 70 ul/well for 30 min at 37° C. Then cells were treated with compound for 24 hrs before the assay.
Following 24 hr treatment with compound, cells were transferred into plates containing 750 ul of assay media on basolateral side and 250 ul on apical side (Assay medium: F-12 Coon's modified, 20 mM HEPES pH7.4 with TRIS Base, No FCS or bicarbonate). The plates wee then transferred to the heated plate compartments (basolateral buffer temperature ˜36.5° C. on the heating block) of the TECC24 system for 45 mins prior to measurements.
Modulators were added sequentially as follows while the TECC24 instrument recorded the equivalent short circuit current (Ieq):
Prior to dilution into assay medium the stocks were as follows: • Benzamil stock: 10 mM in DMSO • Forskolin Stock: 50 mM in DMSO • N-(2,4-di-tert-butyl-5-hydroxyphenyl)-1,4-dihydro-4-oxoquinoline-3-carboxamide: 50 mM in DMSO • (S)-3-amino-6-methoxy-N-(3,3,3-trifluoro-2-hydroxy-2-methylpropyl)-5-(trifluoromethyl)picolinamide: 50 mM stock 100% DMSO • Bumetanide stock: 20 mM in EtOH
The data was normalized using the median signal from wells treated with 0.1% DMSO as a baseline. Curve fitting and EC50 calculations were performed using the following equation: […]

T1 sequence (P13569 with tags, fused parts or gaps DEL508-508): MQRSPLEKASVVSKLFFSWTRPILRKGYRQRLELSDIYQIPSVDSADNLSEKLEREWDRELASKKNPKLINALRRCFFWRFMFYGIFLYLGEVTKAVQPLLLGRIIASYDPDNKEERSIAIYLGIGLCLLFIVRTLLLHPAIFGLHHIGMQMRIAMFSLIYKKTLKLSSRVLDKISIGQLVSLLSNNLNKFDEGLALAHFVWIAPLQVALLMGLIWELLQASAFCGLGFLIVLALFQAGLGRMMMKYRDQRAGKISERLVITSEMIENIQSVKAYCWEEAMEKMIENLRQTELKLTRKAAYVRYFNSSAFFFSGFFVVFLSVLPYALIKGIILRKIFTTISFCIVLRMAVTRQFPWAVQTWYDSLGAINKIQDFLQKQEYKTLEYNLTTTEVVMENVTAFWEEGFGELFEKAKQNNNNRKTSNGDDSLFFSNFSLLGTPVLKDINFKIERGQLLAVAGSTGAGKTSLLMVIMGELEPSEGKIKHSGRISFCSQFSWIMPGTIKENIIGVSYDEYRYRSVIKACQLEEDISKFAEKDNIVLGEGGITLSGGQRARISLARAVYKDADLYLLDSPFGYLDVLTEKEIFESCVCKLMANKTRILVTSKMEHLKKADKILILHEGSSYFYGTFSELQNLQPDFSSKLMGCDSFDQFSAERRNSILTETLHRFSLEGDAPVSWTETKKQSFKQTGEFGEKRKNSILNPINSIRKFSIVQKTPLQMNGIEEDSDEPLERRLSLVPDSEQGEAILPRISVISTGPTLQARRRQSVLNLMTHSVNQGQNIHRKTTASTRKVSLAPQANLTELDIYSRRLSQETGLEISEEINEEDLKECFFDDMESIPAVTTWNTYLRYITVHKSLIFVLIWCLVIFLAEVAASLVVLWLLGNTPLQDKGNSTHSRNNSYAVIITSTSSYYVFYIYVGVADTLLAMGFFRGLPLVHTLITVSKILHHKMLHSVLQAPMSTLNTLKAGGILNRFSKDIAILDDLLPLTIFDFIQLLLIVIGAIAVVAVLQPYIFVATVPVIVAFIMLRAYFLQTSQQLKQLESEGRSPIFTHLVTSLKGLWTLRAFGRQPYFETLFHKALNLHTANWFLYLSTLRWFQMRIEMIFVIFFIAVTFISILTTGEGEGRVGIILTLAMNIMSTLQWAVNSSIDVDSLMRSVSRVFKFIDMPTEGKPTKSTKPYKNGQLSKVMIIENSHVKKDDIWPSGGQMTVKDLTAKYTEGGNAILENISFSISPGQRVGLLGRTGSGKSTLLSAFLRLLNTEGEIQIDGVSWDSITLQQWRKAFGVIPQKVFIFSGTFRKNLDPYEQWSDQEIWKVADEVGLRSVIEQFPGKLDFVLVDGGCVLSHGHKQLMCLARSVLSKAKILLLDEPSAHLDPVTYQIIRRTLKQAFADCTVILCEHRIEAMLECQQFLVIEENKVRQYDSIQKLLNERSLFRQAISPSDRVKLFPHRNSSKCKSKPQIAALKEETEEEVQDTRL

EC50 (delF508-CFTR [1])	EC50 (delF508-CFTR [2])	MTECC24-CFHBEC Amax % (delF508-CFTR [2])	Emax (delF508-CFTR [1])	SMILES
1360 nM	422 nM	114%	643%	Cc1ccccc1-c1nc(NS(=O)(=O)c2cccc(N(CCCC(=O)O)C3CC3)n2)ccc1C(F)(F)F [Compound 125, 4-(cyclopropyl(6-(N-(6-(o-tolyl)-5-(trifluoromethyl)pyridin-2-yl)sulfamoyl)pyridin-2-yl)amino)butanoic Acid]
1680 nM	101 nM	211%		CCN(CCCC(=O)O)c1cccc(S(=O)(=O)Nc2ccc(C(F)(F)F)c(-c3ccccc3C)n2)n1 [Compound 114, 4-(ethyl(6-(N-(6-(o-tolyl)-5-(trifluoromethyl)pyridin-2-yl)sulfamoyl)pyridin-2-yl)amino)butanoic Acid]
1880 nM	116 nM	118%		CCc1ccccc1-c1nc(NS(=O)(=O)c2cccc(N(CC)CCC(=O)O)n2)ccc1C(F)(F)F [Compound 72, 3-(ethyl(6-(N-(6-(2-ethylphenyl)-5-(trifluoromethyl)pyridin-2-yl)sulfamoyl)pyridin-2-yl)amino)propanoic Acid]
1110 nM	31 nM	277%		Cc1ccccc1-c1nc(NS(=O)(=O)c2cccc(N(CCC(=O)O)CC(C)C)n2)ccc1C(F)(F)F [Compound 128, 3-(isobutyl(6-(N-(6-(o-tolyl)-5-(trifluoromethyl)pyridin-2-yl)sulfamoyl)pyridin-2-yl)amino)propanoic Acid]
1580 nM	95 nM	232%		CCCN(CCCC(=O)O)c1cccc(S(=O)(=O)Nc2ccc(C(F)(F)F)c(-c3ccccc3C)n2)n1 [Compound 132, 4-(propyl(6-(N-(6-(o-tolyl)-5-(trifluoromethyl)pyridin-2-yl)sulfamoyl)pyridin-2-yl)amino)butanoic Acid]
720 nM	2 nM	202%		CCc1ccccc1-c1nc(NS(=O)(=O)c2cccc(N(CCCC(=O)O)C(C)C)n2)ccc1C(F)(F)F [Compound 96, 4-((6-(N-(6-(2-ethylphenyl)-5-(trifluoromethyl)pyridin-2-yl)sulfamoyl)pyridin-2-yl)(isopropyl)amino)butanoic Acid]
1360 nM	4 nM	190%		CCc1ccccc1-c1nc(NS(=O)(=O)c2cccc(N(CC)CCCC(=O)O)n2)ccc1C(F)(F)F [Compound 97, 4-(ethyl(6-(N-(6-(2-ethylphenyl)-5-(trifluoromethyl)pyridin-2-yl)sulfamoyl)pyridin-2-yl)amino)butanoic Acid]
1380 nM	61 nM	253%		Cc1ccccc1-c1nc(NS(=O)(=O)c2cccc(N(CCC(=O)O)CC3CC3)n2)ccc1C(F)(F)F [Compound 86, 3-((cyclopropylmethyl)(6-(N-(6-(o-tolyl)-5-(trifluoromethyl)pyridin-2-yl)sulfamoyl)pyridin-2-yl)amino)propanoic Acid]
1380 nM	104 nM	269%		CCCCN(CCCC(=O)O)c1cccc(S(=O)(=O)Nc2ccc(C(F)(F)F)c(-c3ccccc3C)n2)n1 [Compound 87, 4-(butyl(6-(N-(6-(o-tolyl)-5-(trifluoromethyl)pyridin-2-yl)sulfamoyl)pyridin-2-yl)amino)butanoic Acid]

The next lines start with the compound.

SMILES	EC50 (delF508-CFTR [1])	EC50 (delF508-CFTR [2])	MTECC24-CFHBEC Amax % (delF508-CFTR [2])	Emax (delF508-CFTR [1])
CCc1ccc(F)cc1-c1nc(NS(=O)(=O)c2cccc(N(CC)CCC(=O)O)n2)ccc1C(F)(F)F [Compound 81, 3-(ethyl(6-(N-(6-(2-ethyl-5-fluorophenyl)-5-(trifluoromethyl)pyridin-2-yl)sulfamoyl)pyridin-2-yl)amino)propanoic Acid]	1770 nM	35 nM	145%	
CCCN(CCCC(=O)O)c1cccc(S(=O)(=O)Nc2ccc(Cl)c(-c3c(C)cccc3C)n2)n1 [Compound 157, 4-((6-(N-(5-chloro-6-(2,6-dimethylphenyl)pyridin-2-yl)sulfamoyl)pyridin-2-yl)(propyl)amino)butanoic Acid]	770 nM	586 nM	59%	589%
Cc1ccc(F)cc1-c1nc(NS(=O)(=O)c2cccc(N3CCC[C@@](C)(CC(=O)O)C3)n2)ccc1C(F)(F)F (single isomer, unassigned) [Compound 64]	1330 nM	2 nM	107%	
Cc1ccc(F)cc1-c1nc(NS(=O)(=O)c2cccc(N3CCC[C@](C)(CC(=O)O)C3)n2)ccc1C(F)(F)F (single isomer, unassigned) [Compound 65]	1730 nM	31 nM	155%	
CCN(CCC(=O)O)c1cccc(S(=O)(=O)Nc2ccc(C(F)(F)F)c(-c3ccccc3C(C)C)n2)n1 [Compound 70, 3-(ethyl(6-(N-(6-(2-isopropylphenyl)-5-(trifluoromethyl)pyridin-2-yl)sulfamoyl)pyridin-2-yl)amino)propanoic Acid]	1570 nM	68 nM	126%	
Cc1c(F)cccc1-c1nc(NS(=O)(=O)c2cccc(N(C)CCCCC(=O)O)n2)ccc1C(F)(F)F [Compound 67, 5-((6-(N-(6-(3-fluoro-2-methylphenyl)-5-(trifluoromethyl)pyridin-2-yl)sulfamoyl)pyridin-2-yl)(methyl)amino)pentanoic Acid]	1630 nM	161 nM	168%	
CCc1ccc(F)cc1-c1nc(NS(=O)(=O)c2cccc(N(C)CCCC(=O)O)n2)ccc1C(F)(F)F [Compound 93, 4-((6-(N-(6-(2-ethyl-5-fluorophenyl)-5-(trifluoromethyl)pyridin-2-yl)sulfamoyl)pyridin-2-yl)(methyl)amino)butanoic Acid]	1430 nM	40 nM	235%	
Cc1ccc(F)cc1-c1nc(NS(=O)(=O)c2cccc(N(CCCC(=O)O)C(C)C)n2)ccc1C(F)(F)F [Compound 95, 4-((6-(N-(6-(5-fluoro-2-methylphenyl)-5-(trifluoromethyl)pyridin-2-yl)sulfamoyl)pyridin-2-yl)(isopropyl)amino)butanoic Acid]	1680 nM	24 nM	148%	
